In patent US20140329863A1 (priority 2011, published 2014):
Like-named read-outs stand apart in the source and are kept apart here.

Legend:
PrP^C in T98G cells = format: cell-based, human
T98G cells = test: cells; format: cell-based, human; settings: for EC50: Homo sapiens, T98G, read-out: EC50 (μM) Calcein; for % Inhibition: Calcein (T98G): T98G cells
[1] = Hepatic microsomal stability, human; settings: human liver microsomes
[2] = Hepatic microsomal stability, mouse; settings: mouse liver microsomes
IMR32 cells = format: cell-based, human
PrP^C in IMR32 cells = format: cell-based, human
[3] = test system: PrP^Sc in dividing ScN2a-cl3 cells; format: cell-based, mouse; set-up: Dividing ELISA pEC50 (μM) 1st Expt. / Dividing ELISA pEC50 (μM) 2nd Expt. / Dividing ELISA pEC50 (μM) 3rd Expt. / Dividing ELISA pEC50 (μM) Mean: unit not given here
[4] = test system: PrP^Sc in dividing ScN2a-c13 cells; settings: dividing ScN2a-c13 cells; for EC50: read-out: EC50 (ELISA), reduction of PrP^Sc load
N2a-cl3 cells = test: cells; settings: Mus musculus, N2a-cl3, read-out: Dividing Calcein EC50 (μM) Mean (n = 3)
[5] = test system: PrP^Sc in nondividing ScN2a-cl3 cells; format: cell-based, mouse; settings: read-out: Non-Dividing ELISA EC50 (μM) Mean (n = 3); ScN2a-c13 non-dividing cells; mean n = 3
[6] = ScN2a-cl3 dividing cells, 1st determination
[7] = ScN2a-cl3 dividing cells, 2nd determination
[8] = ScN2a-cl3 dividing cells, 3rd determination
[9] = read-out: Dividing ELISA EC50 (μM) 1st Expt., ScN2a-cl3 dividing cells, 1st determination
[10] = read-out: Dividing ELISA EC50 (μM) 2nd Expt., ScN2a-cl3 dividing cells, 2nd determination
[11] = read-out: Dividing ELISA EC50 (μM) 3rd Expt., ScN2a-cl3 dividing cells, 3rd determination
[12] = read-out: Dividing ELISA EC50 (μM) Mean, ScN2a-cl3 dividing cells, mean of three determinations
[13] = ScN2a-cl3 dividing cells, mean of three determinations

SMILES	% Inhibition: Calcein (IMR32) (IMR32 cells) [%]	% Inhibition: SPC (T98G) (PrP^C in T98G cells)	% Inhibition: SPC (IMR32) (PrP^C in IMR32 cells)	% Inhibition: Calcein (T98G) (T98G cells) [%]	EC50 (N2a-cl3 cells) [µM]	Dividing ELISA pEC50 (μM) 1st Expt. [3, 6]	Dividing ELISA pEC50 (μM) 2nd Expt. [3, 7]	Dividing ELISA pEC50 (μM) 3rd Expt. [3, 8]	EC50 [3, 9] [µM]	EC50 [3, 10] [µM]	EC50 [3, 11] [µM]	EC50 [3, 12] [µM]	melting point [°C]	EC50 [5] [µM]	further results
COc1ccc(CC(=O)NCc2ccccc2)cc1 [IND6612]	–	–	–	–	–	–	–	–	–	–	–	–	–	–	Potency relative to the bromo analog (IND61769) (PrP^C in T98G cells): equal potency to the bromo analog; EC50 (PrP^C in T98G cells; read-out: EC50 (μM) ELISA): 3.36 µM; EC50 (T98G cells): > 10 µM
O=C(Cc1ccc(Br)cc1)NCc1ccccc1 [IND61769]	–	–	–	–	–	–	–	–	–	–	–	–	–	–	EC50 (PrP^C in T98G cells; read-out: EC50 (μM) ELISA): 2.33 µM; EC50 (T98G cells): > 10 µM
O=C(Cc1ccc(-c2ccccc2)cc1)NCc1ccccc1 [IND116065]	–	–	–	–	–	–	–	–	–	–	–	–	–	–	Hepatic Extraction Ratio Human ([1]; predicted hepatic extraction): 0.86; half-life at 1 μM ([1]; human, pH 7.4): 11.1 min; Potency relative to the bromo analog (IND61769) (PrP^C in T98G cells): 10 times; EC50 (PrP^C in T98G cells; read-out: EC50 (μM) ELISA): 0.267 µM; EC50 (PrP^C in T98G cells; read-out: EC50 (μM) ELISA potency, PrP^C in T98G cells): 0.233 µM; Hepatic Extraction Ratio Mouse ([2]; predicted hepatic extraction): 0.83; half-life at 1 μM ([2]; mouse, pH 7.4): 12.3 min; EC50 (T98G cells): > 10 µM
O=C(Cc1ccc(Cl)cc1)NCc1ccccc1 [IND126416]	–	–	–	–	–	–	–	–	–	–	–	–	–	–	EC50 (PrP^C in T98G cells; read-out: EC50 (μM) ELISA): > 10 µM; EC50 (PrP^C in T98G cells; read-out: EC50, PrP^C ELISA in T98G cells): > 10 µM; EC50 (T98G cells): > 10 µM
COc1ccc(NC(=O)Nc2ccc(SC(F)(F)F)cc2)cc1 [IND-0002925]	13	MW: 342.3 % Inhibition: SPC (IMR32): 22 Calcein: 13 SPC (T98G): 62 Calcein: −10	MW: 342.3 % Inhibition: SPC (IMR32): 22 Calcein: 13 SPC (T98G): 62 Calcein: −10	−10	–	–	–	–	–	–	–	–	–	–	–
CC(C)(C)NCC(O)COc1ccc(C23CC4CC(CC(C4)C2)C3)cc1 (stereo not drawn) [IND-0003070]	34	MW: 285.4 % Inhibition: SPC (IMR32): 94 Calcein: 34 SPC (T98G): −55 Calcein: −13	MW: 285.4 % Inhibition: SPC (IMR32): 94 Calcein: 34 SPC (T98G): −55 Calcein: −13	−13	–	–	–	–	–	–	–	–	–	–	–
COc1ccc(S(=O)(=O)Nc2cc(C)ccc2C)cc1 [IND-0007902]	36	MW: 291.4 % Inhibition: SPC (IMR32): 38 Calcein: 36 SPC (T98G): 51 Calcein: 19	MW: 291.4 % Inhibition: SPC (IMR32): 38 Calcein: 36 SPC (T98G): 51 Calcein: 19	19	–	–	–	–	–	–	–	–	–	–	–
Cc1nc2sccn2c1-c1csc(Nc2ccc(N(C)C)cc2)n1 [IND-0009688]	38	MW: 288.8 % Inhibition: SPC (IMR32): 66 Calcein: 38 SPC (T98G): 31 Calcein: 8	MW: 288.8 % Inhibition: SPC (IMR32): 66 Calcein: 38 SPC (T98G): 31 Calcein: 8	8	–	–	–	–	–	–	–	–	–	–	–
Cc1[nH]c2ccccc2c1-c1ccnc2ccccc12 [IND-0010878]	19	MW: 318.4 % Inhibition: SPC (IMR32): 34 Calcein: 19 SPC (T98G): 64 Calcein: 25	MW: 318.4 % Inhibition: SPC (IMR32): 34 Calcein: 19 SPC (T98G): 64 Calcein: 25	25	–	–	–	–	–	–	–	–	–	–	–
Cc1cc(C)c(S(=O)(=O)NCc2ccccc2)c(C)c1 [IND-0014135]	4	MW: 289.4 % Inhibition SPC (IMR32): 55 Calcein: 4 SPC (T98G): 39 Calcein: 9	MW: 289.4 % Inhibition SPC (IMR32): 55 Calcein: 4 SPC (T98G): 39 Calcein: 9	9	–	–	–	–	–	–	–	–	–	–	–
OCCNC1CCCc2c1[nH]c1ccc(Br)cc21 (stereo not drawn) [IND-0015066]	2	MW: 309.2 % Inhibition: SPC (IMR32): 45 Calcein: 2 SPC (T98G): −11 Calcein: −27	MW: 309.2 % Inhibition: SPC (IMR32): 45 Calcein: 2 SPC (T98G): −11 Calcein: −27	−27	–	–	–	–	–	–	–	–	–	–	–
CC(=O)c1ccc(NC(=O)c2sc3nc4c(cc3c2N)CCCC4)cc1 [IND-0024609]	–	–	–	–	–	–	–	–	–	–	–	–	–	–	EC50 ([3]; read-out: Antiprion activity EC50, thienopyridine analogs): > 10 µM; antiprion activity (in words) [4]: inactive
CNc1nc(-c2ccc(OC)c(OC)c2)cs1 [compound 5, 4-(3,4-dimethoxyphenyl)-N-methyl-1,3-thiazol-2-amine]	–	–	–	–	> 32	>4.5	>4.5	>4.5	> 32	> 32	> 32	> 32	120 to 123	> 32	antiprion activity (in words) [4]: without significant activity
COc1ccc(-c2csc(Nc3cccnc3)n2)cc1OC [compound 7, [4-(3,4-dimethoxyphenyl)-thiazol-2-yl]pyridin-3-yl-amine]	–	–	–	–	> 32	5.85	5.94	5.96	1.41	1.16	1.1	1.22	251 to 254	> 32	Dividing ELISA pEC50 (μM) Mean [3, 13]: 5.92; EC50 [4]: 1.22 µM
Cc1ccc(Nc2nc(C)cs2)nc1 [compound 29, (5-Methylpyridin-2-yl)-(4-methylthiazol-2-yl)-amine]	–	–	–	–	> 32	>4.5	>4.5	>4.5	> 32	> 32	> 32	> 32	212 to 214	> 32	antiprion activity (in words) [4]: inactive
COc1ccc(-c2csc(Nc3cc4ccccc4cn3)n2)cc1 [compound 30, Isoquinolin-3-yl-[4-(4-methoxyphenyl)-thiazol-2-yl]-amine]	–	–	–	–	> 32	6.65	6.41	6.38	0.226	0.385	0.414	0.342	224 to 228	> 32	Dividing ELISA pEC50 (μM) Mean [3, 13]: 6.48; EC50 [4]: 0.34 µM
FC(F)(F)Oc1ccc(-c2csc(Nc3cc4ccccc4cn3)n2)cc1 [compound 31, Isoquinolin-3-yl-[4-(4-trifluoromethoxyphenyl)-thiazol-2-yl]-amine]	–	–	–	–	> 32	>4.5	>4.5	>4.5	> 32	> 32	> 32	> 32	269 to 271	> 32	antiprion activity (in words) [4]: inactive
Cc1csc(Nc2cc3ccccc3cn2)n1 [compound 36, Isoquinolin-3-yl-(4-methylthiazol-2-yl)-amine]	–	–	–	–	> 32	>4.5	>4.5	>4.5	> 32	> 32	> 32	> 32	212 to 215	> 32	antiprion activity (in words) [4]: inactive
FC(F)(F)c1csc(Nc2cc3ccccc3cn2)n1 [compound 37, Isoquinolin-3-yl-(4-trifluoromethylthiazol-2-yl)-amine]	–	–	–	–	> 32	5.05	5.14	5.01	9	7.26	9.71	8.66	200 to 203	> 32	Dividing ELISA pEC50 (μM) Mean [3, 13]: 5.07; antiprion activity (in words) [4]: less potent
COc1ccc(Nc2nc(-c3cc(-c4ccccc4)no3)cs2)nc1 [compound 40, (5-Methoxypyridin-2-yl)-[4-(3-phenylisoxazol-5-yl)-thiazol-2-yl]-amine]	–	–	–	–	> 32	6.40	6.96	6.74	0.395	0.11	0.183	0.229	203 to 205	> 32	Dividing ELISA pEC50 (μM) Mean [3, 13]: 6.70; EC50 [4]: 0.23 µM
COc1ccnc(Nc2nc(-c3cc(-c4ccccc4)no3)cs2)c1 [compound 41, (4-Methoxypyridin-2-yl)-[4-(3-phenylisoxazol-5-yl)-thiazol-2-yl]-amine]	–	–	–	–	> 32	6.43	6.78	6.66	0.369	0.166	0.219	0.251	177 to 179	> 32	Dividing ELISA pEC50 (μM) Mean [3, 13]: 6.62; EC50 [4]: 0.25 µM
